# US20100210635A1, “RENIN INHIBITORS” (Takeda Pharmaceutical Company Limited, priority 2006, published 2010)
# Biological target: T1, Recombinant human renin (Homo sapiens, UniProt P00797)
# T1 construct: isolate the active form (residues 67-406); made in house; host or cells: FreeStyle 293-F cells (transient expression of pcDNA3.1(+)/hREN)
# T1 sequence (P00797 67-406): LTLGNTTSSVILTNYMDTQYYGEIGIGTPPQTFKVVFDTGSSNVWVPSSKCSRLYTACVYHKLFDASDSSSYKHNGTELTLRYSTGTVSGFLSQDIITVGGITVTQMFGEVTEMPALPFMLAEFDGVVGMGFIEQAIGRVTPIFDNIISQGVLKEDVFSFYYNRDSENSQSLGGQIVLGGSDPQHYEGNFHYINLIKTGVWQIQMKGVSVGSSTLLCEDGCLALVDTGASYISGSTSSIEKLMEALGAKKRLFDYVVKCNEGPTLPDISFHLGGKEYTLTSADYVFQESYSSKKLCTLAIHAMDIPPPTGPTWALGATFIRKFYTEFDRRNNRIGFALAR
# Test: In vitro enzymatic activity assay of Renin inhibitors (fluorescence, QXL520/HiLyteFluo488 peptide substrate)
# Type: biochemical
# Conditions: not given
# Description: Test compounds in varying concentrations may be reacted with recombinant human renin in the presence of substrate, e.g., QXL520-γ-Abu-Ile-His-Pro-Phe-His-Leu-Val-Ile-His-Thr-Lys (HiLyteFluo488)-Arg-OH (Anaspec, San Jose, Calif.). The reaction can be followed kinetically using fluorescence (excitation λ=485 nm; emission λ=538 nm). Inhibition constants (IC50) may be calculated by non-linear curve fitting of the compound concentrations and fluorescence intensities to the standard IC50 equation.
# Solutions of test compounds in varying concentrations (<2 mM final concentration) are prepared in dimethyl sulfoxide (DMSO) and then diluted into assay buffer comprising 50 mM Hepes, 1 mM EDTA, 1 mM DTT, 0.1 mg/ml BSA, 0.01% Brij35, pH 7.4. Alternatively, the assay can be performed with a high BSA concentration, wherein the buffer contains an additional 2% BSA.
# Recombinant human renin (3 nM final concentration) is added to the dilutions and pre-incubated with the compounds for 10 minutes at 37° C. As described in Examples A-C above, human Renin can be obtained by expressing preprorenin (residue 1-406) in mammalian cells, treating the prorenin (residues 24-406) contained in the culture supernatant with trypsin, and isolate the active form (residues 67-406). After pre-incubation, the reaction is initiated with 1 μM of substrate QXL520-γ-Abu-Ile-His-Pro-Phe-His-Leu-Val-Ile-His-Thr-Lys (HiLyteFluo488)-Arg-OH (Anaspec, San Jose, Calif.). The final DMSO in the assay is 5%. The total volume of the reaction mixture is 20 μL, which can be placed on Greiner 384-well small volume plates.
# Renin activity may be determined via fluorescence (excitation λ=485 nm; emission λ=538 nm), e.g., on a Molecular Devices SPECTROmax GEMINI XPS. The fluorescence intensity is determined upon the addition of substrate and determined again after incubation at 37° C. for one hour. The fluorescence intensity of a blank (no inhibition) using vehicle alone is also determined. Renin activity is linearly proportional to the change in fluorescence observed (final−initial).
# The percent inhibition of Renin at a given compound concentration is defined as:
# 100%×[1−(Fcompound/Fblank)]
# where Fcompound is the observed fluorescence at a given concentration of test compound and Fblank is the observed fluorescence in the presence of vehicle alone.
# The pIC50 value (negative log of the molar concentration of the compound that produces 50% inhibition) of a test compound is calculated by non-linear least squares curve fitting of the equation: […]
# to percent inhibition versus compound concentration. The 50% inhibitory concentration (IC50) of a test compound is calculated by raising 10 to the negative pIC50 (10^−pIC50).
row,SMILES,IC50
1,"CC(=O)NCCc1ccccc1Oc1ccccc1CCC(=O)N1CCNC[C@H]1Cc1ccc(OC(=O)N2CCOCC2)cc1 [Example 80, (R)-4-((1-(3-(2-(2-(2-acetamidoethyl)phenoxy)phenyl)propanoyl)piperazin-2-yl)methyl)phenyl morpholine-4-carboxylate]",500 to 5000 nM

# Same assay, conditions: recombinant human renin 3 nM, 1 μM substrate, 37° C., pH 7.4; values given as ranges; read-out: IC50 of Exemplified Compounds Against Renin
row,SMILES,IC50
1,"CC(=O)NCc1cccnc1Oc1ccccc1CCC(=O)N1CCNC[C@H]1Cc1ccccc1 [Example 38, (R)—N-((2-(2-(3-(2-benzylpiperazin-1-yl)-3-oxopropyl)phenoxy)-pyridin-3-yl)methyl)acetamide]",500 to 5000 nM
2,"O=C(COc1ccccc1Br)N1CCNC[C@H]1Cc1ccccc1 [Example 4, (R)-1-(2-Benzylpiperazin-1-yl)-2-(2-bromophenoxy)ethanone]",5000 to 50000 nM
3,"N#Cc1ccccc1Oc1ccccc1CCC(=O)N1CCNC[C@H]1Cc1ccccc1 [Example 30, (R)-2-(2-(3-(2-benzylpiperazin-1-yl)-3-oxopropyl)phenoxy)benzonitrile]",500 to 5000 nM
4,"CC(=O)NCc1cc(C(F)(F)F)ccc1Oc1cc(C)ccc1CCC(=O)N1CCNC[C@H]1Cc1ccccc1 [Example 45, (R)—N-(2-(2-(3-(2-benzylpiperazin-1-yl)-3-oxopropyl)-5-methylphenoxy)-5-(trifluoromethyl)benzyl)acetamide]",500 to 5000 nM
5,"CC(=O)NCCc1ccccc1Oc1ccccc1CCC(=O)N1CCNC[C@H]1Cc1ccccc1 [Example 24, (R)—N-(2-(2-(3-(2-Benzylpiperazin-1-yl)-3-oxopropyl)phenoxy)phenethyl)acetamide]",< 500 nM
6,"C[C@H](CC(=O)N1CCNC[C@H]1Cc1ccccc1)c1ccccc1 [Example 17, (R)-1-((R)-2-Benzylpiperazin-1-yl)-3-phenylbutan-1-one]",500 to 5000 nM
7,"NC(=O)c1cccc(Oc2ccccc2CCC(=O)N2CCNC[C@H]2Cc2ccccc2)c1 [Example 37, (R)-3-(2-(3-(2-benzylpiperazin-1-yl)-3-oxopropyl)phenoxy)benzamide]",500 to 5000 nM
8,"O=C(CC(Cc1ccccc1)c1ccco1)N1CCNC[C@H]1Cc1ccccc1 (stereo partly drawn) [Example 16, 1-((R)-2-Benzylpiperazin-1-yl)-3-(furan-2-yl)-4-phenylbutan-1-one]",500 to 5000 nM
9,"CC(=O)c1cccc(Oc2ccccc2CCC(=O)N2CCNC[C@H]2Cc2ccccc2)c1 [Example 36, (R)-3-(2-(3-Acetylphenoxy)phenyl)-1-(2-benzylpiperazin-1-yl)propan-1-one]",500 to 5000 nM
10,"O=S(=O)(CC(c1ccccc1)c1ccccc1)N1CCNC[C@H]1Cc1ccccc1 [Example 13, (R)-2-Benzyl-1-(2,2-diphenylethylsulfonyl)piperazine]",500 to 5000 nM
11,"CCNC(=O)c1cccc(Oc2ccccc2CCC(=O)N2CCNC[C@H]2Cc2ccccc2)c1 [Example 34, (R)-3-(2-(3-(2-Benzylpiperazin-1-yl)-3-oxopropyl)phenoxy)-N-ethylbenzamide]",500 to 5000 nM
12,"Cc1cccc(Oc2ccccc2CCC(=O)N2CCNC[C@H]2Cc2ccccc2)c1 [Example 23, (R)-1-(2-benzylpiperazin-1-yl)-3-(2-(m-tolyloxy)phenyl)propan-1-one]",< 500 nM
13,"O=C(NC(c1ccccc1)c1ccccc1)N1CCNC[C@H]1Cc1ccccc1 [Example 10, (R)—N-Benzhydryl-2-benzylpiperazine-1-carboxamide]",> 50000 nM
14,"CC(=O)Nc1cccc(Oc2ccccc2CCC(=O)N2CCNC[C@H]2Cc2ccccc2)c1 [Example 33, (R)—N-(3-(2-(3-(2-Benzylpiperazin-1-yl)-3-oxopropyl)phenoxy)phenyl)acetamide]",500 to 5000 nM
15,"O=C(CCC(=O)N1CCNC[C@H]1Cc1ccccc1)c1ccccc1 [Example 5, (R)-1-(2-Benzylpiperazin-1-yl)-4-phenylbutane-1,4-dione]",> 50000 nM
16,"CC(=O)NCCc1ccccc1Oc1cc(C)ccc1CCC(=O)N1CCNC[C@H]1Cc1ccccc1 [Example 28, (R)—N-(2-(2-(3-(2-Benzylpiperazin-1-yl)-3-oxopropyl)-5-methylphenoxy)phenethyl)acetamide]",< 500 nM
17,"O=C(Cc1ccccc1Oc1ccccc1)N1CCNC[C@H]1Cc1ccccc1 [Example 8, (R)-1-(2-Benzylpiperazin-1-yl)-2-(2-phenoxyphenyl)ethanone]",5000 to 50000 nM
18,"O=C(Cc1ccccc1-c1ccccc1Cl)N1CCNC[C@H]1Cc1ccccc1 [Example 11, 1-((R)-2-Benzylpiperazin-1-yl)-2-(2′-chlorobiphenyl-2-yl)ethanone]",500 to 5000 nM
19,"CCOc1cccc(Oc2ccccc2CCC(=O)N2CCNC[C@H]2Cc2ccccc2)c1 [Example 32, (R)-1-(2-Benzylpiperazin-1-yl)-3-(2-(3-ethoxyphenoxy)phenyl)propan-1-one]",500 to 5000 nM

# More lines, now with the values ahead:
row,IC50,SMILES
1,< 500 nM,"O=C(CCc1ccccc1Cc1ccccc1)N1CCNC[C@H]1Cc1ccccc1 [Example 53, (R)-3-(2-benzylphenyl)-1-(2-benzylpiperazin-1-yl)propan-1-one]"
2,< 500 nM,"CC(=O)NCCc1ccccc1Cc1ccccc1CCC(=O)N1CCNC[C@H]1Cc1ccc(C(=O)NS(C)(=O)=O)cc1 [Example 93, (R)-4-((1-(3-(2-(2-(2-acetamidoethyl)benzyl)phenyl)propanoyl)piperazin-2-yl)methyl)-N-(methylsulfonyl)benzamide]"
3,500 to 5000 nM,"O=C(O)COc1ccc(C[C@@H]2CNCCN2C(=O)CCc2ccccc2Oc2ccccc2)cc1 [Example 86, (R)-2-(4-((1-(3-(2-phenoxyphenyl)propanoyl)piperazin-2-yl)methyl)phenoxy)acetic acid]"
4,< 500 nM,"Cc1ccc(Oc2ccccc2CCC(=O)N2CCNC[C@H]2Cc2ccccc2)cc1 [Example 50, (R)-1-(2-benzylpiperazin-1-yl)-3-(2-(p-tolyloxy)phenyl)propan-1-one]"
5,< 500 nM,"CC(=O)NCCc1ccccc1Oc1ccccc1CCC(=O)N1CCNC[C@H]1Cc1ccc(O)cc1 [Example 79, (R)—N-(2-(2-(3-(2-(4-hydroxybenzyl)piperazin-1-yl)-3-oxopropyl)phenoxy)phenethyl)acetamide]"
6,500 to 5000 nM,"COc1ccc(Oc2ccccc2CCC(=O)N2CCNC[C@H]2Cc2ccccc2)cc1 [Example 51, (R)-1-(2-benzylpiperazin-1-yl)-3-(2-(4-methoxyphenoxy)-phenyl)propan-1-one]"
7,500 to 5000 nM,"O=C(CCc1nc(-c2ccccc2)c(-c2ccccc2)o1)N1CCNC[C@H]1Cc1ccccc1 [Example 63, (R)-1-(2-benzylpiperazin-1-yl)-3-(4,5-diphenyloxazol-2-yl)propan-1-one]"
8,< 500 nM,"CC(=O)NCCc1ccccc1Cc1ccccc1CCC(=O)N1CCNC[C@H]1Cc1ccccc1 [Example 84, (R)—N-(2-(2-(3-(2-benzylpiperazin-1-yl)-3-oxopropyl)benzyl)phenethyl)acetamide]"
9,< 500 nM,"CC(=O)NCCc1ccccc1Cc1ccccc1CCC(=O)N1CCNC[C@H]1Cc1ccc(OCC(N)=O)cc1 [Example 89, (R)-2-(4-((1-(3-(2-(2-(2-acetamidoethyl)benzyl)phenyl)propanoyl)piperazin-2-yl)methyl)phenoxy)acetamide]"
10,< 500 nM,"CC(=O)NCCc1cc(C)ccc1Oc1ccccc1CCC(=O)N1CCNC[C@H]1Cc1ccccc1 [Example 49, (R)—N-(2-(2-(3-(2-benzylpiperazin-1-yl)-3-oxopropyl)phenoxy)-5-methylphenethyl)acetamide]"
11,500 to 5000 nM,"COCCOCCCOc1ccccc1CCC(=O)N1CCNC[C@H]1Cc1ccccc1 [Example 77, (R)-1-(2-benzylpiperazin-1-yl)-3-(2-(3-(2-methoxyethoxy)propoxy)phenyl)propan-1-one]"
12,500 to 5000 nM,"CN(C)C(=O)COc1ccc(C[C@@H]2CNCCN2C(=O)CCc2ccccc2Oc2ccccc2)cc1 [Example 71, (R)—N,N-dimethyl-2-(4-((1-(3-(2-phenoxyphenyl)propanoyl)piperazin-2-yl)methyl)phenoxy)acetamide]"
